# Tested on: MV-4-11 cells
# Assay: Gene expression microarray analysis (Affymetrix PrimeView) and GSEA
# Type: cell-based, human
# Design: RFU PODN (11730768_x_at) / Fold change /veh PODN (11730768_x_at) / RFU LINC00158 (11744669_a_at) / Fold change /veh LINC00158 (11744669_a_at) / RFU DUSP10 (11751237_a_at) / Fold change /veh DUSP10 (11751237_a_at) / RFU ID3 (11757404_x_at) / Fold change /veh ID3 (11757404_x_at) / RFU PLEKHG5 (11737974_s_at) / Fold change /veh PLEKHG5 (11737974_s_at) / RFU LRRC4B (11730491_at) / Fold change /veh LRRC4B (11730491_at) / RFU GIMAP4 (11747438_a_at) / Fold change /veh GIMAP4 (11747438_a_at) / RFU KRT8 (11758183_x_at) / Fold change /veh KRT8 (11758183_x_at) / RFU CNN1 (11734310_a_at) / Fold change /veh CNN1 (11734310_a_at) / RFU VPS37D (11726825_at) / Fold change /veh VPS37D (11726825_at) / RFU C10orf10 (11716522_x_at) / Fold change /veh C10orf10 (11716522_x_at) / RFU KIR2DL2 /// KIR2DL4 /// KIR2DL5A /// KIR2DL5B /// KIR2DS1 /// KIR2DS2 /// KIR2DS3 /// KIR2DS4 /// KIR3DL3 /// KIR3DL3 /// KIR3DS1 (11738374_at) / Fold change /veh KIR2DL2 /// KIR2DL4 /// KIR2DL5A /// KIR2DL5B /// KIR2DS1 /// KIR2DS2 /// KIR2DS3 /// KIR2DS4 /// KIR3DL3 /// KIR3DL3 /// KIR3DS1 (11738374_at) / RFU C1QL1 (11718748_at) / Fold change /veh C1QL1 (11718748_at) / RFU TMPRSS4 (11747572_a_at) / Fold change /veh TMPRSS4 (11747572_a_at) / RFU HAMP (11756126_x_at) / Fold change /veh HAMP (11756126_x_at) / RFU RNFT2 (11725882_a_at) / Fold change /veh RNFT2 (11725882_a_at) / RFU NR4A2 (11747474_a_at) / Fold change /veh NR4A2 (11747474_a_at) / RFU ABCC12 (11746883_a_at) / Fold change /veh ABCC12 (11746883_a_at) / RFU TMEM136 (11760407_x_at) / Fold change /veh TMEM136 (11760407_x_at) / RFU CLDN22 /// WWC2 (11732394_at) / Fold change /veh CLDN22 /// WWC2 (11732394_at) / RFU HLA-DPB1 (11760878_x_at) / Fold change /veh HLA-DPB1 (11760878_x_at) / RFU SPINT1 (11716480_a_at) / Fold change /veh SPINT1 (11716480_a_at) / RFU GAP43 (11754022_s_at) / Fold change /veh GAP43 (11754022_s_at) / RFU A4GNT (11735810_at) / Fold change /veh A4GNT (11735810_at) / RFU PRB3 (11715151_x_at) / Fold change /veh PRB3 (11715151_x_at) / RFU TUBB4B (11761932_at) / Fold change /veh TUBB4B (11761932_at) / RFU CAPN14 (11732068_a_at) / Fold change /veh CAPN14 (11732068_a_at) / RFU TMCC2 (11721928_a_at) / Fold change /veh TMCC2 (11721928_a_at) / RFU IRGQ (11745062_a_at) / Fold change /veh IRGQ (11745062_a_at) / RFU FAM174B (11720279_a_at) / Fold change /veh FAM174B (11720279_a_at) / RFU TMPRSS4 (11748680_a_at) / Fold change /veh TMPRSS4 (11748680_a_at) / RFU FAM212B (11763350_a_at) / Fold change /veh FAM212B (11763350_a_at) / RFU PLEKHG5 (11743358_a_at) / Fold change /veh PLEKHG5 (11743358_a_at) / RFU ZSCAN30 (11745921_a_at) / Fold change /veh ZSCAN30 (11745921_a_at) / RFU CMKLR1 (11741424_a_at) / Fold change /veh CMKLR1 (11741424_a_at) / RFU LOC101060620 /// MAPK8IP1 (11723275_at) / Fold change /veh LOC101060620 /// MAPK8IP1 (11723275_at) / RFU SPTSSB (11747773_x_at) / Fold change /veh SPTSSB (11747773_x_at) / RFU PRSS12 (11739890_at) / Fold change /veh PRSS12 (11739890_at) / RFU BIN1 (11741810_x_at) / Fold change /veh BIN1 (11741810_x_at) / RFU WNT11 (11732464_a_at) / Fold change /veh WNT11 (11732464_a_at) / RFU C10orf10 (11716521_a_at) / Fold change /veh C10orf10 (11716521_a_at) / RFU C5orf56 (11738089_at) / Fold change /veh C5orf56 (11738089_at) / RFU CYB561 (11721691_x_at) / Fold change /veh CYB561 (11721691_x_at) / RFU ANKRD19P (11752326_a_at) / Fold change /veh ANKRD19P (11752326_a_at) / RFU OR2T12 /// OR2T33 /// OR2T8 (11738714_s_at) / Fold change /veh OR2T12 /// OR2T33 /// OR2T8 (11738714_s_at) / RFU VCAN (11748164_a_at) / Fold change /veh VCAN (11748164_a_at) / RFU JSRP1 (11732532_at) / Fold change /veh JSRP1 (11732532_at) / RFU KRTAP10-11 (11738290_x_at) / Fold change /veh KRTAP10-11 (11738290_x_at) / RFU MYO3A (11730013_a_at) / Fold change /veh MYO3A (11730013_a_at) / RFU EBF3 (11725865_a_at) / Fold change /veh EBF3 (11725865_a_at) / RFU CAMK2N1 (11719241_x_at) / Fold change /veh CAMK2N1 (11719241_x_at) / RFU C5orf56 (11738088_a_at) / Fold change /veh C5orf56 (11738088_a_at) / RFU OLFML3 (11715873_a_at) / Fold change /veh OLFML3 (11715873_a_at) / RFU LOC100653217 /// NTM (11731650_a_at) / Fold change /veh LOC100653217 /// NTM (11731650_a_at) / RFU MAPK11 (11762145_a_at) / Fold change /veh MAPK11 (11762145_a_at) / RFU FIZ1 (11724087_x_at) / Fold change /veh FIZ1 (11724087_x_at) / RFU OASL (11726364_x_at) / Fold change /veh OASL (11726364_x_at) / RFU SOX15 (11748057_x_at) / Fold change /veh SOX15 (11748057_x_at) / RFU CD79A (11719716_a_at) / Fold change /veh CD79A (11719716_a_at) / RFU HIST1H1D (11736915_at) / Fold change /veh HIST1H1D (11736915_at) / RFU CASKIN2 (11723855_a_at) / Fold change /veh CASKIN2 (11723855_a_at) / RFU LOC730098 (11760151_x_at) / Fold change /veh LOC730098 (11760151_x_at) / RFU OR4N2 (11742367_at) / Fold change /veh OR4N2 (11742367_at) / RFU PRRT2 (11749266_a_at) / Fold change /veh PRRT2 (11749266_a_at) / RFU SNX32 (11753110_a_at) / Fold change /veh SNX32 (11753110_a_at) / RFU CDHR5 (11726645_a_at) / Fold change /veh CDHR5 (11726645_a_at) / RFU RCAN1 (11760418_a_at) / Fold change /veh RCAN1 (11760418_a_at) / RFU FAM167A (11723789_a_at) / Fold change /veh FAM167A (11723789_a_at) / RFU FAM26E (11764081_at) / Fold change /veh FAM26E (11764081_at) / RFU ISYNA1 (11749810_s_at) / Fold change /veh ISYNA1 (11749810_s_at) / RFU ACY1 (11761880_at) / Fold change /veh ACY1 (11761880_at) / RFU 11764098_at / Fold change /veh 11764098_at / RFU SAMD14 (11745864_x_at) / Fold change /veh SAMD14 (11745864_x_at) / RFU NPB (11741838_a_at) / Fold change /veh NPB (11741838_a_at) / RFU TMPRSS6 (11731388_a_at) / Fold change /veh TMPRSS6 (11731388_a_at) / RFU KRTAP10-2 (11738614_at) / Fold change /veh KRTAP10-2 (11738614_at) / RFU ARHGAP8 /// PRR5-ARHGAP8 (11727945_x_at) / Fold change /veh ARHGAP8 /// PRR5-ARHGAP8 (11727945_x_at) / RFU KRTAP5-7 /// NADSYN1 (11734609_at) / Fold change /veh KRTAP5-7 /// NADSYN1 (11734609_at) / RFU RASL12 (11751679_a_at) / Fold change /veh RASL12 (11751679_a_at) / RFU CDKN2B (11736163_a_at) / Fold change /veh CDKN2B (11736163_a_at) / RFU PRF1 (11729649_at) / Fold change /veh PRF1 (11729649_at) / RFU, ZNF638 /// ZNF638-IT1 / Fold change vs veh, ZNF638 /// ZNF638-IT1 / RFU, PANK3 / Fold change vs veh, PANK3 / RFU, SH3YL1 / Fold change vs veh, SH3YL1 / RFU, ZEB2 / Fold change vs veh, ZEB2 / RFU, NRIP1 / Fold change vs veh, NRIP1 / RFU, PTTG1IP / Fold change vs veh, PTTG1IP / RFU, CAPN2 / Fold change vs veh, CAPN2 / RFU, MED14 / Fold change vs veh, MED14 / RFU, SNORA58 / Fold change vs veh, SNORA58 / RFU, C1orf63 / Fold change vs veh, C1orf63 / RFU, LRRFIP1 / Fold change vs veh, LRRFIP1 / RFU, NDUFAF7 / Fold change vs veh, NDUFAF7 / RFU, SLC12A2 / Fold change vs veh, SLC12A2 / RFU, IBTK / Fold change vs veh, IBTK / RFU, ESF1 / Fold change vs veh, ESF1 / Fold change vs veh, TMEM50B / RFU, TAOK1 / Fold change vs veh, TAOK1 / RFU, ACBD3 / Fold change vs veh, ACBD3 / RFU, TMA16 / Fold change vs veh, TMA16 / RFU, RWDD3 / Fold change vs veh, RWDD3 / RFU, BCAT1 / Fold change vs veh, BCAT1 / RFU, EDEM3 / Fold change vs veh, EDEM3 / RFU, TMEM33 / Fold change vs veh, TMEM33 / RFU, WDR75 / Fold change vs veh, WDR75 / RFU, AHCTF1 / Fold change vs veh, AHCTF1 / RFU, TFRC / Fold change vs veh, TFRC / RFU, ZDHHC17 / Fold change vs veh, ZDHHC17 / RFU, NOM1 / Fold change vs veh, NOM1 / RFU, ARL8B / Fold change vs veh, ARL8B / RFU, ZBTB11 / Fold change vs veh, ZBTB11 / RFU, TAMM41 / Fold change vs veh, TAMM41 / RFU, KIAA1704 /// LOC100996395 / Fold change vs veh, KIAA1704 /// LOC100996395 / RFU, ING1 / Fold change vs veh, ING1 / RFU, TRMT61B / Fold change vs veh, TRMT61B / RFU, FUBP3 / Fold change vs veh, FUBP3 / RFU, TP53 / Fold change vs veh, TP53 / RFU, TNKS2 / Fold change vs veh, TNKS2 / RFU, ZFP14 / Fold change vs veh, ZFP14 / RFU, ACTR2 / Fold change vs veh, ACTR2 / RFU, PPP3R1 / Fold change vs veh, PPP3R1 / RFU, PIK3R1 / Fold change vs veh, PIK3R1 / RFU, HNRNPA1 / Fold change vs veh, HNRNPA1 / RFU, RNF170 / Fold change vs veh, RNF170 / RFU, ZNF28 / Fold change vs veh, ZNF28 / RFU, RNGTT / Fold change vs veh, RNGTT / RFU, OGT / Fold change vs veh, OGT / RFU, BRD1 / Fold change vs veh, BRD1 / RFU, MARS / Fold change vs veh, MARS / RFU, ZNF655 / Fold change vs veh, ZNF655 / RFU, FAHD1 / Fold change vs veh, FAHD1 / RFU, BDP1 / Fold change vs veh, BDP1 / RFU, LRRCC1 / Fold change vs veh, LRRCC1 / RFU, ARID1A / Fold change vs veh, ARID1A / RFU, ZNF146 / Fold change vs veh, ZNF146 / RFU, ZNF330 / Fold change vs veh, ZNF330 / RFU, GPN3 / Fold change vs veh, GPN3 / RFU, C9orf123 / Fold change vs veh, C9orf123 / RFU, N4BP2L2 / Fold change vs veh, N4BP2L2 / RFU, ARFIP1 / Fold change vs veh, ARFIP1 / RFU, FAM179B / Fold change vs veh, FAM179B / RFU, BCL10 / Fold change vs veh, BCL10 / RFU, UHRF1BP1L / Fold change vs veh, UHRF1BP1L / RFU, BET1 / Fold change vs veh, BET1 / RFU, CNOT2 / Fold change vs veh, CNOT2 / RFU, ZNF268 / Fold change vs veh, ZNF268 / Fold change vs veh, ZNF507 / RFU, DGCR2 / Fold change vs veh, DGCR2 / RFU, WDSUB1 / Fold change vs veh, WDSUB1 / Fold change vs veh, HSP90B1 /// MIR3652 / RFU, ADSS / Fold change vs veh, ADSS / RFU, GK / Fold change vs veh, GK / RFU, ZNF148 / Fold change vs veh, ZNF148 / RFU, TAF9 / Fold change vs veh, TAF9 / RFU, SLC1A5 / Fold change vs veh, SLC1A5 / RFU, SLMO2 / Fold change vs veh, SLMO2 / RFU, ABCC4 / Fold change vs veh, ABCC4 / RFU, LOC101060439 /// RAP1B / Fold change vs veh, LOC101060439 /// RAP1B / RFU, RFX7 / Fold change vs veh, RFX7 / RFU, GTPBP10 / Fold change vs veh, GTPBP10 / RFU, CNEP1R1 / Fold change vs veh, CNEP1R1 / RFU, BIVM-ERCC5 /// ERCC5 / Fold change vs veh, BIVM-ERCC5 /// ERCC5 / RFU, ILF3 / Fold change vs veh, ILF3 / RFU 11762660_at / Fold change /veh 11762660_at / RFU VCAN (11757783_s_at) / Fold change /veh VCAN (11757783_s_at) / RFU DDX43 (11728927_at) / Fold change /veh DDX43 (11728927_at) / RFU KRT8 (11758188_x_at) / Fold change /veh KRT8 (11758188_x_at) / RFU NKD1 (11759106_at) / Fold change /veh NKD1 (11759106_at) / RFU SRD5A1 (11742802_a_at) / Fold change /veh SRD5A1 (11742802_a_at) / RFU TPSAB1 /// TPSB2 (11721975_s_at) / Fold change /veh TPSAB1 /// TPSB2 (11721975_s_at) / RFU GSTM3 (11746129_a_at) / Fold change /veh GSTM3 (11746129_a_at) / RFU IL23R (11737362_x_at) / Fold change /veh IL23R (11737362_x_at) / RFU TMEM51 (11727254_a_at) / Fold change /veh TMEM51 (11727254_a_at) / RFU PIWIL2 (11732686_x_at) / Fold change /veh PIWIL2 (11732686_x_at) / RFU ORM1 (11744905_x_at) / Fold change /veh ORM1 (11744905_x_at) / RFU CCDC152 (11743942_at) / Fold change /veh CCDC152 (11743942_at) / RFU ECM1 (11717891_a_at) / Fold change /veh ECM1 (11717891_a_at) / RFU IL23R (11748794_a_at) / Fold change /veh IL23R (11748794_a_at) / RFU TNFAIP8L3 (11732012_x_at) / Fold change /veh TNFAIP8L3 (11732012_x_at) / RFU MBOAT4 (11741988_at) / Fold change /veh MBOAT4 (11741988_at) / RFU 11764193_at / Fold change /veh 11764193_at / RFU TMEM53 (11763286_at) / Fold change /veh TMEM53 (11763286_at) / RFU MAGEB2 (11727129_at) / Fold change /veh MAGEB2 (11727129_at) / RFU TMEM200A (11744735_a_at) / Fold change /veh TMEM200A (11744735_a_at) / RFU CCDC152 (11751479_a_at) / Fold change /veh CCDC152 (11751479_a_at) / RFU FAM211A (11726209_a_at) / Fold change /veh FAM211A (11726209_a_at) / RFU RGS16 (11746705_a_at) / Fold change /veh RGS16 (11746705_a_at) / RFU VCAN (11755009_s_at) / Fold change /veh VCAN (11755009_s_at) / RFU RHOB (11743442_s_at) / Fold change /veh RHOB (11743442_s_at) / RFU RGS16 (11720943_a_at) / Fold change /veh RGS16 (11720943_a_at) / RFU RGS16 (11720944_at) / Fold change /veh RGS16 (11720944_at) / RFU, VPS4B / Fold change vs veh, VPS4B / RFU, CREB1 / Fold change vs veh, CREB1 / RFU, DNAJC13 / Fold change vs veh, DNAJC13 / RFU, GNAQ / Fold change vs veh, GNAQ / RFU, CDK5R1 / Fold change vs veh, CDK5R1 / RFU, ZRANB3 / Fold change vs veh, ZRANB3 / RFU, CUL4A / Fold change vs veh, CUL4A / RFU, CCNY / Fold change vs veh, CCNY / RFU, UFL1 / Fold change vs veh, UFL1 / RFU, COG3 / Fold change vs veh, COG3 / RFU, DIAPH2 / Fold change vs veh, DIAPH2 / RFU, SKA2 / Fold change vs veh, SKA2 / RFU, AFF3 / Fold change vs veh, AFF3 / RFU, LMF1 / Fold change vs veh, LMF1 / RFU, IPO11 / Fold change vs veh, IPO11 / RFU, DFFB / Fold change vs veh, DFFB / RFU, FOXP1 / Fold change vs veh, FOXP1 / RFU, CARD8 / Fold change vs veh, CARD8 / RFU, STRN3 / Fold change vs veh, STRN3 / RFU, ADK / Fold change vs veh, ADK / RFU, RASSF2 / Fold change vs veh, RASSF2 / RFU, WIPF1 / Fold change vs veh, WIPF1 / RFU, LARP1B / Fold change vs veh, LARP1B / RFU, RASA1 / Fold change vs veh, RASA1 / RFU, RB1 / Fold change vs veh, RB1 / RFU, PPFIA1 / Fold change vs veh, PPFIA1 / RFU, MAT2A / Fold change vs veh, MAT2A / RFU, CCT5 / Fold change vs veh, CCT5 / RFU, WDR92 / Fold change vs veh, WDR92 / RFU, CUX1 / Fold change vs veh, CUX1 / RFU, TTC7A / Fold change vs veh, TTC7A / RFU, TMEM135 / Fold change vs veh, TMEM135 / RFU, DEPTOR / Fold change vs veh, DEPTOR / RFU, CPM / Fold change vs veh, CPM / RFU, DNAJB6 / Fold change vs veh, DNAJB6 / RFU, CACNA2D3 / Fold change vs veh, CACNA2D3 / RFU, DTX4 / Fold change vs veh, DTX4 / RFU, TFCP2 / Fold change vs veh, TFCP2 / RFU, GMCL1 /// GMCL1P1 / Fold change vs veh, GMCL1 /// GMCL1P1 / RFU, AEBP2 / Fold change vs veh, AEBP2 / RFU, SNHG1 /// SNORD22 /// SNORD25 /// SNORD26 /// SNORD27 /// SNORD28 /// SNORD29 /// SNORD31 / Fold change vs veh, SNHG1 /// SNORD22 /// SNORD25 /// SNORD26 /// SNORD27 /// SNORD28 /// SNORD29 /// SNORD31 / Fold change (Aza/veh), C12orf56 (ProbeSet 11735607_a_at) / Fold change (ACY-1035/veh), C12orf56 (ProbeSet 11735607_a_at) / Fold change (Aza/veh), FGFR1OP (ProbeSet 11751329_s_at) / Fold change (ACY-1035/veh), FGFR1OP (ProbeSet 11751329_s_at) / Fold change (Aza/veh), VPS36 (ProbeSet 11739960_a_at) / Fold change (ACY-1035/veh), VPS36 (ProbeSet 11739960_a_at) / RFU SYPL1 (11715823_x_at) / Fold change /veh SYPL1 (11715823_x_at) / RFU IGFBP7 (11715501_s_at) / Fold change /veh IGFBP7 (11715501_s_at) / RFU REEP3 (11722064_at) / Fold change /veh REEP3 (11722064_at) / RFU IGLL1 (11728026_x_at) / Fold change /veh IGLL1 (11728026_x_at): dose or concentration left out as unconfirmed
# Settings: ProbeSet 11716891_at; LIST B
structure (smiles),measurement,value
Nc1ccc(-c2cccs2)cc1NC(=O)c1ccc2c(c1)cc(C1CC1)n2CCN1CCOCC1 [ACY-1035],"RFU, C9orf123",39.54 RFU

# Source: paper PMC5218480 (PLoS ONE, 2017)
